In patent US20250255926A1, “GINGEROL COMPOSITIONS AND RELATED METHODS” (ThermoLife International, LLC, priority 2024, published 2025):
Where two headings read alike, the source gives them in different places.

Columns and labels:
[1] = cited from earlier work
[2] = test system: herpes simplex virus infection; assay: Herpes simplex blister outbreak in two subjects (Example 6); assay type: in vivo, human; conditions: same two subjects
Protocol: Two females ([…]) with a chronic herpes simplex virus infection with frequent outbreaks of blisters on their lips ingested 1000 ml of the water-soluble ginger extract produced according to Example 1 while acutely suffering from large painful blisters.
For past outbreaks, both subjects tried multiple remedies, both pharmaceutical and natural, to treat the blisters. They include Abriva®, tea tree oil, toothpaste, lysine, acyclovir, topical hydrogen peroxide, Vaseline® and Aquafor®.

CCCCC[C@H](O)CC(=O)CCc1ccc(O)c(OC)c1 [Example 6-gingerol, 6-gingerol]
Solubility, pH 2 - HCl buffer ([1]; pH 2): >100 μM | Solubility, pH 4 - citrate buffer ([1]; pH 4): >100 μM | Solubility, pH 7.4 - phosphate buffer ([1]; pH 7.4): >100 μM

CCCCC/C=C/C(=O)CCc1ccc(O)c(OC)c1 [Example 6-shogoal, 6-shogoal]
Solubility, pH 2 - HCl buffer ([1]; pH 2 HCl buffer, n = 2): <10 μM | Solubility, pH 4 - citrate buffer ([1]; pH 4 citrate buffer, n = 2): <10 μM | Solubility, pH 7.4 - phosphate buffer ([1]; pH 7.4 phosphate buffer, n = 2): <10 μM

CCCCCCC[C@H](O)CC(=O)CCc1ccc(O)c(OC)c1 [Example 8-gingerol, 8-gingerol]
Solubility, pH 2 - HCl buffer ([1]; pH 2): >100 μM | Solubility, pH 4 - citrate buffer ([1]; pH 4): >100 μM | Solubility, pH 7.4 - phosphate buffer ([1]; pH 7.4): >100 μM

CCCCCCCCC[C@H](O)CC(=O)CCc1ccc(O)c(OC)c1 [Example 10-gingerol, 10-gingerol]
Solubility, pH 2 - HCl buffer ([1]; pH 2 HCl buffer, n = 2): <10 μM | Solubility, pH 4 - citrate buffer ([1]; pH 4 citrate buffer, n = 2): <10 μM | Solubility, pH 7.4 - phosphate buffer ([1]; pH 7.4 phosphate buffer, n = 2): <10 μM

Nc1nc2c(ncn2COCCO)c(=O)[nH]1 [acyclovir]
Relief or healing of blisters in past outbreaks [2]: None of those remedies provided any noticeable immediate relief or greater healing of the symptoms

NCCCC[C@H](N)C(=O)O [lysine]
Relief or healing of blisters in past outbreaks [2]: None of those remedies provided any noticeable immediate relief or greater healing of the symptoms

OO [topical hydrogen peroxide, hydrogen peroxide]
Relief or healing of blisters in past outbreaks [2]: None of those remedies provided any noticeable immediate relief or greater healing of the symptoms
